EC50 data for 20 molecules are collected here from patent US20240124408A1 (Sanofi, priority 2020, published 2024).

Common to all, as to assay type: cell-based
The target in experiment [1] is T1, human TRPM8 (Homo sapiens, UniProt Q7Z2W7).
T1 construct: expressed in transfected cells; host or cells: CHO (p658 mammalian expression vector)
Description: In vitro human TRPM8 fluorescence calcium flux assay (recombinant CHO cells, Fluo4-AM, FDSS6000). The following applies: recombinant CHO cells expressing human TRPM8; menthol-related EC50, normalized to 100 μM menthol. A digest of the protocol:
(§1)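 Agonist EC50 values come from sixteen-point dose responses normalized to the 100 μM menthol maximum, fitted sigmoidally. Calcium rise was followed for 3 min post-addition in recombinant CHO lines (human or pig TRPM8). Cells were dye-loaded with 2 μM Fluo4-AM, 1 h at room temperature, probenecid-containing HBSS.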

Experiment [2] has as its target T2, pig TRPM8 (Sus scrofa, UniProt F1SM15).
T2 construct: expressed in transfected cells; host or cells: CHO (pcDNA5/FRT/TO vector; hygromycin B and blasticidin selection)
The experiment in a line: In vitro pig TRPM8 fluorescence calcium flux assay (recombinant CHO cells, Fluo4-AM, FDSS6000). The following applies: recombinant CHO cells expressing pig TRPM8; menthol-related EC50, normalized to 100 μM menthol. A digest of the protocol:
as §1
Background: Calcium flux is commonly read through the fluorescence of an indicator in the cells.

Experiment [3] deals with T1, human TRPM8. Description: In vitro human TRPM8 automated patch-clamp assay (SyncroPatch 384PE, CHO cells). Conditions: CHO cells expressing human TRPM8, 28° C. The procedure: (§2) In Vitro Pig and Human TRPM8 Automated Patch-Clamp Assays
(§3) Automated whole-cell recordings of compound effects were performed on the SyncroPatch 384PE (Nanion Technologies, Munich, Germany) incorporated into a Biomek FX pipetting robot (Beckman Coulter, Jersey City, NJ, USA) using the same engineered CHO cell lines expressing human or pig TRPM8 channels. Data acquisition and analysis were performed with the proprietary software PatchControl 384 and DataControl 384, respectively (Nanion Technologies, Munich, Germany). All recordings were carried out using planar borosilicate glass patch clamp chips in a 384-microtiter plate format with patch hole resistances of 2-4 MO. For recordings, standard intracellular solution was used containing (in mM): 130 KF, 4 NaCl, 1 MgCl2, 0.5 CaCl2, 10 HEPES and 10 EGTA/KOH (pH 7.2) and standard extracellular solution contained in mM: 150 NaCl, 4 KCl, 0.5 CaCl2, 1 MgCl2 and 10 HEPES (pH 7.3).
(§4) Prior to the electrophysiological measurements, cells were harvested using Accutase (GIBCO, Fisher Scientific) and resuspended in warmed extracellular solution. The cell suspension was kept in the dedicated cell reservoir at 28° C. at a 1 million/ml cell density and shaken at 500 rounds per min (rpm). Experiments were performed at 28° C. throughout. Cells were distributed in high resistance 4-holes-per-well Nanion chips where they were caught on the patch holes by application of a −80 mbar pressure. The cell membrane was ruptured to obtain the whole-cell configuration with a pressure pulse of −250 mbar for 2 seconds. Voltage protocols were constructed using PatchControl 384. The cells were held at a holding potential of −60 mV and TRPM8 currents were recorded using a ramp protocol from −80 to +80 mV every 5 seconds before and after compound addition. Resulting currents were recorded at both −80 and +80 mV and current kinetics were exported and analyzed. From each plate, control wells with 200 μM menthol were recorded to validate the assay. One concentration of compound was applied to each of the other wells. For each concentration, compound response was determined by subtracting the baseline current recorded before compound addition from the maximum peak elicited currents obtained after compound addition. Then, each compound response was normalized to control condition without compound and maximum current (Emax) obtained for each compound. Nanion DataControl 384 software plotted current response for each compound concentration and was able to calculate an EC50 value for each active compound.
A general note: The patch-clamp technique gives a direct electrical read-out from membranes.

In experiment [4] the target is T2, pig TRPM8. The experiment in a line: In vitro pig TRPM8 automated patch-clamp assay (SyncroPatch 384PE, CHO cells). Conditions: CHO cells expressing pig TRPM8, 28° C. The procedure:
as §2, §3, §4

T2 sequence (F1SM15 1-1104): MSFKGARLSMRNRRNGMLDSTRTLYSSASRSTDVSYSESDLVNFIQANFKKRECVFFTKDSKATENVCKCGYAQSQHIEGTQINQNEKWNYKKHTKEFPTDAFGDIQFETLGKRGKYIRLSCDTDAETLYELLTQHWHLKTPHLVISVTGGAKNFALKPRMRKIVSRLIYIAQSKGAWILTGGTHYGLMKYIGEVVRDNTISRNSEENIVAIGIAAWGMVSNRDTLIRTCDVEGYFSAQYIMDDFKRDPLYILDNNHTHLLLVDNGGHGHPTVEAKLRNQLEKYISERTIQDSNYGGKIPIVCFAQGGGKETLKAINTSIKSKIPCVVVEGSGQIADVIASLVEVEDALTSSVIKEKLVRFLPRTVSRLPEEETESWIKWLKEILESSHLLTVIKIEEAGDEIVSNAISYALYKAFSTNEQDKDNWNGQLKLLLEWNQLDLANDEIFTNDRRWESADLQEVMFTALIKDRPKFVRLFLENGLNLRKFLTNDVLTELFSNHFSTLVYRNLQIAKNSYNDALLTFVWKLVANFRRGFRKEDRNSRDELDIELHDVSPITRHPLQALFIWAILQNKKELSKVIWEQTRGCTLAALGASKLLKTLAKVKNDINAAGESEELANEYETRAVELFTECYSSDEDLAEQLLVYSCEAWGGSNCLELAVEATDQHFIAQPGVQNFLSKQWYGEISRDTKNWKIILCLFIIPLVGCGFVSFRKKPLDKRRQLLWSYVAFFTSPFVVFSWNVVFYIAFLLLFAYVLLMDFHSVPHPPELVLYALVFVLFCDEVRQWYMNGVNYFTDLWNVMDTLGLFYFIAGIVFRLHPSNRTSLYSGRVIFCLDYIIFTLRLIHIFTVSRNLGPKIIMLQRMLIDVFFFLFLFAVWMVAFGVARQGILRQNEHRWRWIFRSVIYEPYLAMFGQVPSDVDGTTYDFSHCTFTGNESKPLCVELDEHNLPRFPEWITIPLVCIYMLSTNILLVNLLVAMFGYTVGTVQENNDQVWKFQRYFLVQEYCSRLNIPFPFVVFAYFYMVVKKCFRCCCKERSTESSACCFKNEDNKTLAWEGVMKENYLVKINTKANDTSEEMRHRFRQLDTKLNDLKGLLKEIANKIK
T1 sequence (Q7Z2W7 whole entry): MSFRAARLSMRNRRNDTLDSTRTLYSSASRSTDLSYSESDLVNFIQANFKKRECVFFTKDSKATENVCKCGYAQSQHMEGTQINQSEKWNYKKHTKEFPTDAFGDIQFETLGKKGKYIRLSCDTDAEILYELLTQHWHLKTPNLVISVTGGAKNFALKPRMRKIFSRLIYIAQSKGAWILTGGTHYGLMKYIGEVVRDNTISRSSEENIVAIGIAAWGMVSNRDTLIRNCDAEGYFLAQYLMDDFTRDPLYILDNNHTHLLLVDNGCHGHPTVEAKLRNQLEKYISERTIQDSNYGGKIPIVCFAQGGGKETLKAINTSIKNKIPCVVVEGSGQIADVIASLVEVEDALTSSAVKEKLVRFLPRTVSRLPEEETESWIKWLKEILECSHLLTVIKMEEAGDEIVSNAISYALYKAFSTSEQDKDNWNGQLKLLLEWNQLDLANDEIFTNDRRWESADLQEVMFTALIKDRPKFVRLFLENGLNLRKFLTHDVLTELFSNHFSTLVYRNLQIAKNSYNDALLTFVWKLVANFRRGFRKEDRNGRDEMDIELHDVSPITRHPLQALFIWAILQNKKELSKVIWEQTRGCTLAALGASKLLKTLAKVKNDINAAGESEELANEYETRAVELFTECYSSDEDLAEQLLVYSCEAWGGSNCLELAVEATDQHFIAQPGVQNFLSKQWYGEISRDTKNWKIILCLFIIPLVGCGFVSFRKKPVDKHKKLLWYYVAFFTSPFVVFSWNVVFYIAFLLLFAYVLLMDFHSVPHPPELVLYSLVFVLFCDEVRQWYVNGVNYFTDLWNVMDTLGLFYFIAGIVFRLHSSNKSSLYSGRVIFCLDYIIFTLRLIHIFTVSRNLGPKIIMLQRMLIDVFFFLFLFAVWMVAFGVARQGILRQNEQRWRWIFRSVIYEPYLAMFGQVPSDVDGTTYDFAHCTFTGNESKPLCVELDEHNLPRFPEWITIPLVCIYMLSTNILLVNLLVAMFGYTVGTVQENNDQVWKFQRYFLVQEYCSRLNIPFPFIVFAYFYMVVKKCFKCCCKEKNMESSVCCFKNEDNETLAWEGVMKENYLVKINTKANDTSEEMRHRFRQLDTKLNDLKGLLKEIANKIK

As usually defined, the EC50 is the concentration that produces a half-maximal response. In the case of `CC(C)[C@@H]1CC[C@@H](C)C[C@@]1(O)C(=O)NCCc1ccccc1OCC[N+](C)(C)C` [Example 11, 2-(2-(2-((1S,2S,5R)-1-hydroxy-2-isopropyl-5-methylcyclohexane-1-carboxamido)ethyl)phenoxy)-N,N,N-trimethylethan-1-aminium iodide], the EC50 on human TRPM8 [1] is 148 nM; on pig TRPM8 [2], 298 nM; at human TRPM8 [3], 3700 nM; at pig TRPM8 [4] it was 4900 nM.
The like results for `COC(=O)[C@@H](N)Cc1cccc(CCNC(=O)[C@]2(O)C[C@H](C)CC[C@H]2C(C)C)c1` [Example 20, methyl (S)-2-amino-3-(3-(2-((1S,2S,5R)-1-hydroxy-2-isopropyl-5-methylcyclohexane-1-carboxamido)ethyl)phenyl)propanoate] were, in that order, 3.2 nM, 6.6 nM, 1400 nM and 1420 nM.
The like results for `CC(C)[C@@H]1CC[C@@H](C)C[C@@]1(O)C(=O)NCC(NC(=O)[C@H](C)N)c1ccccc1` (single isomer, unassigned) [Example 182] were, in that order, 3.7 nM, 3.8 nM, 66 nM and 52 nM.
For the molecule `CC(C)[C@@H]1CC[C@@H](C)C[C@@]1(O)C(=O)NCC(=O)c1ccccc1` [Example 2, (1S,2S,5R)-1-hydroxy-2-isopropyl-5-methyl-N-(2-oxo-2-phenylethyl)cyclohexane-1-carboxamide], the EC50 on human TRPM8 [1] stood at 1.2 nM; at pig TRPM8 [2], 0.7 nM; at human TRPM8 [3] it was 450 nM; on pig TRPM8 [4] it was 596 nM.
The like results for `COC(=O)C(CNC(=O)[C@]1(O)C[C@H](C)CC[C@H]1C(C)C)c1ccccc1` (some centres unmarked) [Example 69] were, in that order, 46 nM, 42 nM, 1930 nM and 1580 nM.
As for `CC(=O)O[C@H](CNC(=O)[C@]1(O)C[C@H](C)CC[C@H]1C(C)C)c1ccccc1` [Example 3, (S)-2-((1S,2S,5R)-1-hydroxy-2-isopropyl-5-methylcyclohexane-1-carboxamido)-1-phenylethyl acetate], the EC50 was 36.8 nM at human TRPM8 [1], 35.5 nM on pig TRPM8 [2], 1120 nM at human TRPM8 [3] and 9910 nM on pig TRPM8 [4].
The like results for `CC(C)[C@@H]1CC[C@@H](C)C[C@@]1(O)C(=O)NC[C@@H](OCC(=O)O)c1ccccc1` [Example 55, 2-((S)-2-((1S,2S,5R)-1-hydroxy-2-isopropyl-5-methylcyclohexane-1-carboxamido)-1-phenylethoxy)acetic acid] were, in that order, 102 nM, 54.3 nM, 4470 nM and 3550 nM.
For the molecule `CC(C)[C@@H]1CC[C@@H](C)C[C@@]1(O)C(=O)NCCc1cccc2c1OCC2` [Example 159, (1S,2S,5R)-N-[2-(2,3-dihydrobenzofuran-7-yl)ethyl]-1-hydroxy-2-isopropyl-5-methyl-cyclohexanecarboxamide], the EC50 is 9.2 nM on human TRPM8 [1], 4.9 nM at pig TRPM8 [2], 1000 nM on human TRPM8 [3] and 1030 nM at pig TRPM8 [4].
For `CC(C)[C@@H]1CC[C@@H](C)C[C@@]1(O)C(=O)NCC(O)c1ccc(F)cc1` (stereo partly drawn) [Example 158, (1S,2S,5R)-N-[2-(4-fluorophenyl)-2-hydroxy-ethyl]-1-hydroxy-2-isopropyl-5-methyl-cyclohexanecarboxamide] the same measures were 7 nM, 3 nM, 1900 nM and 940 nM.
Consider `CC(C)[C@@H]1CC[C@@H](C)C[C@@]1(O)C(=O)NCC(NC(=O)CN)c1ccccc1` (single isomer, unassigned) [Example 183], for which the EC50 at human TRPM8 [1] turned out to be 2.7 nM; on pig TRPM8 [2], 2.8 nM; at human TRPM8 [3], 120 nM; on pig TRPM8 [4] it was 20 nM.
Take `CC(C)[C@@H]1CC[C@@H](C)C[C@@]1(O)C(=O)NCC(O)c1cccc(CO)c1` (stereo partly drawn) [Example 37, (1S,2S,5R)-1-hydroxy-N-(2-hydroxy-2-(3-(hydroxymethyl)phenyl)ethyl)-2-isopropyl-5-methylcyclohexane-1-carboxamide]: the EC50 was 17 nM at human TRPM8 [1], 11 nM at pig TRPM8 [2], 3100 nM on human TRPM8 [3] and 2360 nM at pig TRPM8 [4].
The like results for `COC(=O)[C@@H](N)COc1cccc(CCNC(=O)[C@]2(O)C[C@H](C)CC[C@H]2C(C)C)c1` [Example 27, methyl O-(3-(2-((1S,2S,5R)-1-hydroxy-2-isopropyl-5-methylcyclohexane-1-carboxamido)ethyl)phenyl)-L-serinate] were, in that order, 3.1 nM, 10.3 nM, 2400 nM and 4000 nM.
Consider `CC(C)[C@@H]1CC[C@@H](C)C[C@@]1(O)C(=O)NCC(F)c1ccccc1` (stereo partly drawn) [Example 5, (1S,2S,5R)—N-(2-fluoro-2-phenylethyl)-1-hydroxy-2-isopropyl-5-methylcyclohexane-1-carboxamide], for which the EC50 at human TRPM8 [1] stood at 1.3 nM; at pig TRPM8 [2] it was 0.7 nM; at human TRPM8 [3], 950 nM; at pig TRPM8 [4], 478 nM.
For `CC(C)[C@@H]1CC[C@@H](C)C[C@@]1(O)C(=O)NCCc1ccccc1OCC(O)CO` (stereo partly drawn) [Example 9, (1S,2S,5R)—N-(2-(2,3-dihydroxypropoxy)phenethyl)-1-hydroxy-2-isopropyl-5-methylcyclohexane-1-carboxamide] the same measures were 8.8 nM, 6.3 nM, 2400 nM and 4100 nM.
With `COc1ccccc1C(F)(F)CNC(=O)[C@]1(O)C[C@H](C)CC[C@H]1C(C)C` [Example 186, (1S,2S,5R)—N-[2,2-difluoro-2-(2-methoxyphenyl)ethyl]-1-hydroxy-2-isopropyl-5-methyl-cyclohexanecarboxamide], the EC50 was 43.9 nM on human TRPM8 [1], 26.1 nM on pig TRPM8 [2], 1000 nM at human TRPM8 [3] and 2100 nM at pig TRPM8 [4].
Consider `CC(C)[C@@H]1CC[C@@H](C)C[C@@]1(O)C(=O)NCC(CO)c1ccccc1` (single isomer, unassigned) [Example 90], for which the EC50 was determined as 41.8 nM on human TRPM8 [1], 14.4 nM at pig TRPM8 [2], 3000 nM on human TRPM8 [3] and 2000 nM on pig TRPM8 [4].
As to `CC(C)[C@@H]1CC[C@@H](C)C[C@@]1(O)C(=O)NCCc1ccncc1` [Example 119, (1S,2S,5R)-1-hydroxy-2-isopropyl-5-methyl-N-[2-(4-pyridyl)ethyl]cyclohexanecarboxamide], the EC50 was found to be 37.4 nM on human TRPM8 [1], 6.3 nM on pig TRPM8 [2], 3200 nM at human TRPM8 [3] and 7210 nM on pig TRPM8 [4].
For `CC(C)[C@@H]1CC[C@@H](C)C[C@@]1(O)C(=O)NCCc1cccc(C#N)c1` [Example 48, (1S,2S,5R)—N-(3-cyanophenethyl)-1-hydroxy-2-isopropyl-5-methylcyclohexane-1-carboxamide] the same measures were 13.5 nM, 5 nM, 2630 nM and 4600 nM.
For `CC(C)[C@@H]1CC[C@@H](C)C[C@@]1(O)C(=O)NC[C@H](O)c1cccc(O)c1` [Example 41, (1S,2S,5R)-1-hydroxy-N-((2R)-hydroxy-2-(3-hydroxyphenyl)ethyl)-2-isopropyl-5-methylcyclohexane-1-carboxamide] the same measures were 195 nM, 74.5 nM, 1100 nM and 5110 nM.
For `CC(C)[C@@H]1CC[C@@H](C)C[C@@]1(O)C(=O)NCCOC(=O)c1ccccc1` [Example 111, 2-((1S,2S,5R)-1-hydroxy-2-isopropyl-5-methylcyclohexane-1-carboxamido)ethyl benzoate] the same measures were 72.7 nM, 25.1 nM, 5100 nM and 5070 nM.
